The results in this text go back to patent US20170107207A1, “AMINOPYRAZOLONE DERIVATIVE” (DAIICHI SANKYO COMPANY, LIMITED, priority 2014, published 2017).

For assay [1], the system named is human lymphoma cell line RAMOS cells. Put plainly: Cell growth inhibition test using RAMOS cell, MTT assay. It counts as cell-based. The note with it: 50% growth inhibition concentration. As to the method: A cell growth inhibition test was carried out by treating human lymphoma cell line RAMOS cells with a test compound for a given period and then counting the number of viable cells by MTT assay or CellTiter-Glo Luminescent Cell Viability Assay (manufactured by Promega Corp.; hereinafter, referred to as ATP assay).
RAMOS cells were suspended in a medium (RPMI1640 medium containing 10% fetal bovine serum). The cell suspension was inoculated at 5000 cells/150 μL/well to a 96-well multiwell plate. The test compound was dissolved in DMSO, and this solution was diluted with medium to prepare a sample solution (DMSO concentration: 1% or lower). Subsequently, test compound-free medium or the sample solution was added thereto at 50 μL/well. The MTT assay was carried out at the day of addition of the sample solution or the DMSO dilution to the cells and after culture at 37° C. for 3 days under 5% CO2 of the cells supplemented with the sample solution or the medium. The MTT assay was carried out as follows.
A 5 mg/mL solution of MTT (3-(4,5-dimethylthiazol-2-yl)-2,5-diphenyltetrazolium bromide, Sigma-Aldrich Corp., M-2128) was prepared using a phosphate buffered solution (Dulbecco's phosphate-buffered saline). This MTT solution was added at 20 μL/well to the plate. Then, the plate was incubated at 37° C. for 4 hours under 5% CO2. The plate was centrifuged at 1200 rpm for 5 minutes, and then, the culture supernatant was removed by suction using a dispenser. DMSO was added thereto at 150 μL/well to dissolve formed formazan. […] from each well was rendered uniform by the stirring of the plate using a plate mixer. The absorbance of each well was measured using a plate reader under conditions involving OD of 540 nm and reference of 660 nm.
The number of viable cells and absorbance (hereinafter, referred to as an OD value) have been confirmed to correlate with each other. Therefore, the rate of cell growth was calculated according to the following expression: Rate of cell growth (T/C %) of a test compound-supplemented well=100×[(B−C)/(A−C)] wherein A represents the OD value (final culture date) of a test compound-free well; B represents the OD value (final culture date) of a test compound-containing well; and C represents the OD value (day of cell inoculation) of a well at the start of contact of the cells with the test compound.
T/C % at each concentration of the test compound was determined. The concentration at which the test compound offered 50% growth rate was calculated as a 50% growth inhibition concentration (GI50) value from the growth rates at two points interpolating 50% and the concentrations, and is shown in Table 56.
(In general: Tetrazolium assays rely on reduction of a dye to a coloured formazan, in cell work by metabolically active cells.)

For assay [2], the target named is T1, TIP48/TIP49 complex (Homo sapiens, UniProt Q9Y230+Q9Y265).
T1 construct: made in house; host or cells: E. coli
T1 sequence (Q9Y230 whole entry): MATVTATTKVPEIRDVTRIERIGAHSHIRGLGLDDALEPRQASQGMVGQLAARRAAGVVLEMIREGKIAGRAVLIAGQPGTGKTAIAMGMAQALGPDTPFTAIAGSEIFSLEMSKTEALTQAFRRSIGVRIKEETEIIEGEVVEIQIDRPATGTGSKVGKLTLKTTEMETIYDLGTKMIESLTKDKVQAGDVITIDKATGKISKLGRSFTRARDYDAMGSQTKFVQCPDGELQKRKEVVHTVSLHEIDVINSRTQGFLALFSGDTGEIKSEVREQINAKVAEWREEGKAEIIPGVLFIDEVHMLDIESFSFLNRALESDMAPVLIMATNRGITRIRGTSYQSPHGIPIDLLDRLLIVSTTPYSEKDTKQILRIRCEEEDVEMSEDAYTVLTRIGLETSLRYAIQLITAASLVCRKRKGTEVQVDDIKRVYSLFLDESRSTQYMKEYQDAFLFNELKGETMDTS
T1 sequence (Q9Y265 whole entry): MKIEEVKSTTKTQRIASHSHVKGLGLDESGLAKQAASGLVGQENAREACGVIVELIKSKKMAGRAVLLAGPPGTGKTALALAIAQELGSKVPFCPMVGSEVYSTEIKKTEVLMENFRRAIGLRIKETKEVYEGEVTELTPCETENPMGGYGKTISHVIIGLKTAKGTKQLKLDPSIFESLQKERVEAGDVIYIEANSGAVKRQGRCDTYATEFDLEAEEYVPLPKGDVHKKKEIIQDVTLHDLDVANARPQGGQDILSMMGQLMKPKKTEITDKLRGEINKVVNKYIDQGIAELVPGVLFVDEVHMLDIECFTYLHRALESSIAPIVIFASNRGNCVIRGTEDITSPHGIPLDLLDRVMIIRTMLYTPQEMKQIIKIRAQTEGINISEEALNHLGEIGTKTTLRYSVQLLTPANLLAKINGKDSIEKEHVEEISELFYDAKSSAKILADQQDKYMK
Put plainly: ATPase assay of TIP48/TIP49 complex (ADP-Glo). The following applies: concentration at which the ATPase activity was inhibited by 50%. The class given is biochemical. The procedure, abridged: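 Recombinant human TIP48 and TIP49 expressed in E. coli (24.5 μg/mL final) were incubated 1.5 h at room temperature with compound (0.0007–200 μM, 2% DMSO) in Tris-HCl pH 7.5 buffer containing MgCl2 and ATP. ADP formed was detected by ADP-Glo luminescence; inhibition came from dose-response curves.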
In general terms: ADP-Glo turns the ADP formed in a reaction into a luminescent signal.

As to `Cc1c(NC(=O)CC(C)(C)CNC(=O)c2cc(Cl)ccc2OC(C)C)c(=O)n(-c2ccccc2)n1C` [Example 94], it took 0.073 µM to inhibit growth in assay [1] by half (GI50). Besides, in assay [2], the IC50 is 0.087 µM.
For `CCOc1ncc(Cl)cc1C(=O)NCC(C)(C)CC(=O)Nc1c(C)n(C)n(-c2ccccc2)c1=O` [Example 95], in that order: 0.18 µM and 0.059 µM.
For `Cc1c(NC(=O)CC(C)(C)CNC(=O)c2cc(Cl)ccc2OC2CC2)c(=O)n(-c2ccccc2)n1C` [Example 96], in that order: 0.12 µM and 0.035 µM.
For `Cc1c(NC(=O)CC(C)(O)CNC(=O)c2cc(Cl)c(F)cc2OC(C)C)c(=O)n(-c2ccccc2)n1C` (centres unmarked) [Example 97, 5-Chloro-N-{4-[(1,5-dimethyl-3-oxo-2-phenyl-2,3-dihydro-1H-pyrazol-4-yl)amino]-2-hydroxy-2-methyl-4-oxobutyl}-4-fluoro-2-isopropoxybenzamide], in that order: 1 µM and 0.1 µM.
Molecule `COc1ccc(Cl)cc1NC(=O)CC1(CC(=O)Nc2c(C)n(C)n(-c3ccccc3)c2=O)OCCO1` [Example 98, N-(5-Chloro-2-methoxyphenyl)-2-(2-{2-[(1,5-dimethyl-3-oxo-2-phenyl-2,3-dihydro-1H-pyrazol-4-yl)amino]-2-oxoethyl}-1,3-dioxolan-2-yl)acetamide] had a GI50 in assay [1] of 9.6 µM. Also, half-maximal inhibition in assay [2] (IC50) required 2.2 µM.
For `CCC(C)(CC(=O)Nc1cc(Cl)ccc1OC)CC(=O)Nc1c(C)n(C)n(-c2ccccc2)c1=O` (centres unmarked) [Example 99, N-(5-Chloro-2-methoxyphenyl)-N′-(1,5-dimethyl-3-oxo-2-phenyl-2,3-dihydro-1H-pyrazol-4-yl)-3-ethyl-3-methylpentanediamide] the same measures were 0.4 µM and 0.26 µM.
For `COc1ccc(Cl)cc1NC(=O)CC1(CC(=O)Nc2c(C)n(C)n(-c3ccccc3)c2=O)CCC1` [Example 100, N-(5-Chloro-2-methoxyphenyl)-2-(1-{2-[(1,5-dimethyl-3-oxo-2-phenyl-2,3-dihydro-1H-pyrazol-4-yl)amino]-2-oxoethyl}cyclobutyl)acetamide], in that order: 0.86 µM and 0.095 µM.
For `COc1ccc(Cl)cc1NC(=O)CC1(CC(=O)Nc2c(C)n(C)n(-c3ccccc3)c2=O)CC1` [Example 101, N-(5-Chloro-2-methoxyphenyl)-2-(1-{2-[(1,5-dimethyl-3-oxo-2-phenyl-2,3-dihydro-1H-pyrazol-4-yl)amino]-2-oxoethyl}cyclopropyl)acetamide], in that order: 3.2 µM and 0.45 µM.
In turn, `CCOc1ccc(Cl)cc1NC(=O)CC(C)(CC(=O)Nc1c(C)n(C)n(-c2ccccc2)c1=O)OC(C)=O` (centres unmarked) [Example 102, {1-[2-(5-Chloro-2-ethoxyaniline)-2-oxoethyl]-3-[(1,5-dimethyl-3-oxo-2-phenyl-2,3-dihydro-1H-pyrazol-4-yl)amino]-1-methyl-3-oxopropyl} acetate] yielded a GI50 in assay [1] of 0.78 µM. For the same molecule, in assay [2], the IC50 was found to be 0.15 µM.
For `CCOc1ccc(Cl)cc1NC(=O)CC(C)(O)CC(=O)Nc1c(C)n(C)n(-c2ccccc2)c1=O` (centres unmarked) [Example 103, N-(5-Chloro-2-ethoxyphenyl)-N′-(1,5-dimethyl-3-oxo-2-phenyl-2,3-dihydro-1H-pyrazol-4-yl)-3-hydroxy-3-methylpentanediamide], in that order: 1.4 µM and 0.17 µM.
As for `COc1ccc(Cl)cc1NC(=O)CC(C)(CC(=O)Nc1c(C)n(C)n(-c2ccccc2)c1=O)OC` (centres unmarked) [Example 104, N-(5-Chloro-2-methoxyphenyl)-N′-(1,5-dimethyl-3-oxo-2-phenyl-2,3-dihydro-1H-pyrazol-4-yl)-3-methoxy-3-methylpentanediamide], it took 1.3 µM to inhibit growth in assay [1] by half (GI50). The molecule also displayed an IC50 in assay [2] of 0.25 µM.
For `Cc1c(NC(=O)CC(C)(C)CNC(=O)c2cc(Cl)cc3c2OC(C)C3)c(=O)n(-c2ccccc2)n1C` (centres unmarked) [Example 105, 5-Chloro-N-{4-[(1,5-dimethyl-3-oxo-2-phenyl-2,3-dihydro-1H-pyrazol-4-yl)amino]-2,2-dimethyl-4-oxobutyl}-2-methyl-2,3-dihydrobenzofuran-7-carboxamide], in that order: 0.074 µM and 0.026 µM.
Take `Cc1c(NC(=O)CC(C)(C)CNC(=O)c2cc(Cl)cc3c2OCCC3)c(=O)n(-c2ccccc2)n1C` [Example 106, 6-Chloro-N-{4-[(1,5-dimethyl-3-oxo-2-phenyl-2,3-dihydro-1H-pyrazol-4-yl)amino]-2,2-dimethyl-4-oxobutyl}chromane-8-carboxamide]: growth in assay [1] was halved (GI50) at 0.1 µM. Further, in assay [2], inhibition was half-maximal at 0.035 µM (IC50).
For `Cc1ccc2cc(Cl)cc(C(=O)NCC(C)(C)CC(=O)Nc3c(C)n(C)n(-c4ccccc4)c3=O)c2n1` [Example 107, 6-Chloro-N-{4-[(1,5-dimethyl-3-oxo-2-phenyl-2,3-dihydro-1H-pyrazol-4-yl)amino]-2,2-dimethyl-4-oxobutyl}-2-methylquinoline-8-carboxamide], in that order: 0.19 µM and 0.066 µM.
For `Cc1c(NC(=O)CC(C)(C)CNC(=O)c2cc(Cl)ccc2OC2COC2)c(=O)n(-c2ccccc2)n1C` [Example 108, 5-Chloro-N-{4-[(1,5-dimethyl-3-oxo-2-phenyl-2,3-dihydro-1H-pyrazol-4-yl)amino]-2,2-dimethyl-4-oxobutyl}-2-(oxetan-3-yloxy)benzamide], in that order: 0.74 µM and 0.19 µM.
For `Cc1c(NC(=O)CC(C)(C)CNC(=O)c2cc(Cl)cc3c2OC(C)CN3)c(=O)n(-c2ccccc2)n1C` (centres unmarked) [Example 109] the same measures were 0.2 µM and 0.2 µM.
The molecule `Cc1c(NC(=O)CC(C)(C)CNC(=O)c2cc(Cl)cc3c2OC(C)CN3C)c(=O)n(-c2ccccc2)n1C` (centres unmarked) [Example 110, 6-Chloro-N-{4-[(1,5-dimethyl-3-oxo-2-phenyl-2,3-dihydro-1H-pyrazol-4-yl)amino]-2,2-dimethyl-4-oxobutyl}-2,4-dimethyl-2,3-dihydro-1,4-benzoxazine-8-carboxamide] showed a GI50 in assay [1] of 0.12 µM. Moreover, in assay [2], it took 0.033 µM to reach half-maximal inhibition (IC50).
Regarding `CCc1nc2c(C(=O)NCC(C)(C)CC(=O)Nc3c(C)n(C)n(-c4ccccc4)c3=O)cc(Cl)cc2o1` [Example 111, 6-Chloro-N-{4-[(1,5-dimethyl-3-oxo-2-phenyl-2,3-dihydro-1H-pyrazol-4-yl)amino]-2,2-dimethyl-4-oxobutyl}-2-ethyl-1,3-benzoxazole-4-carboxamide], the GI50 in assay [1] is 0.09 µM. The molecule further came in with an IC50 in assay [2] of 0.044 µM.
The molecule `COc1ccc(Cl)cc1C(=O)NCC(C)(C)C(O)C(=O)Nc1c(C)n(C)n(-c2ccccc2)c1=O` (centres unmarked) [Example 112] showed a GI50 in assay [1] of 0.68 µM. For the same molecule, in assay [2], the IC50 turned out to be 0.15 µM.
For the molecule `CCOc1ncc(Cl)cc1C(=O)NCC(C)(C)CC(=O)Nc1c(COC)n(C)n(-c2ccccc2)c1=O` [Example 117, 5-Chloro-2-ethoxy-N-(4-{[5-(methoxymethyl)-1-methyl-3-oxo-2-phenyl-2,3-dihydro-1H-pyrazol-4-yl]amino}-2,2-dimethyl-4-oxobutyl)pyridine-3-carboxamide], the GI50 in assay [1] came out at 0.11 µM. The molecule also displayed an IC50 in assay [2] of 0.041 µM.
For `CCOc1cc(F)c(Cl)cc1NC(=O)CC(C)(C)CC(=O)Nc1c(COC)n(C)n(-c2ccccc2)c1=O` [Example 119, N-(5-Chloro-2-ethoxy-4-fluorophenyl)-N′-[5-(methoxymethyl)-1-methyl-3-oxo-2-phenyl-2,3-dihydro-1H-pyrazol-4-yl]-3,3-dimethylpentanediamide], in that order: 0.27 µM and 0.095 µM.
Regarding `COCc1c(NC(=O)CC(C)(C)CNC(=O)c2cc(Cl)cc3cc(C)oc23)c(=O)n(-c2ccccc2)n1C` [Example 120, 5-Chloro-N-(4-{[5-(methoxymethyl)-1-methyl-3-oxo-2-phenyl-2,3-dihydro-1H-pyrazol-4-yl]amino}-2,2-dimethyl-4-oxobutyl)-2-methylbenzofuran-7-carboxamide], the GI50 in assay [1] came out at 0.051 µM. The same molecule had an IC50 in assay [2] of 0.024 µM.

A word on the GI50: it is the concentration that inhibits growth by half. By IC50 is commonly meant the concentration that gives 50% inhibition.
